The record followed here is patent publication US20220315578A1, “BRD9 BIFUNCTIONAL DEGRADERS AND THEIR METHODS OF USE” (NOVARTIS AG, priority 2019, published 2022).

The assay concerns the target T1, BRD9-GFP (Homo sapiens, UniProt Q9H8M2).
T1 construct: CHYSEL (2A cis-acting hydrolase element) remnant after GFP; mCherry is split off as a separate protein (C); expressed in transfected cells; host or cells: HEK293A cells (Invitrogen R70507), lentiviral transduction with pLenti6-BRD9-GFP-CHYSEL-mCherry, blasticidin selection
T1 sequence (Q9H8M2 1-597): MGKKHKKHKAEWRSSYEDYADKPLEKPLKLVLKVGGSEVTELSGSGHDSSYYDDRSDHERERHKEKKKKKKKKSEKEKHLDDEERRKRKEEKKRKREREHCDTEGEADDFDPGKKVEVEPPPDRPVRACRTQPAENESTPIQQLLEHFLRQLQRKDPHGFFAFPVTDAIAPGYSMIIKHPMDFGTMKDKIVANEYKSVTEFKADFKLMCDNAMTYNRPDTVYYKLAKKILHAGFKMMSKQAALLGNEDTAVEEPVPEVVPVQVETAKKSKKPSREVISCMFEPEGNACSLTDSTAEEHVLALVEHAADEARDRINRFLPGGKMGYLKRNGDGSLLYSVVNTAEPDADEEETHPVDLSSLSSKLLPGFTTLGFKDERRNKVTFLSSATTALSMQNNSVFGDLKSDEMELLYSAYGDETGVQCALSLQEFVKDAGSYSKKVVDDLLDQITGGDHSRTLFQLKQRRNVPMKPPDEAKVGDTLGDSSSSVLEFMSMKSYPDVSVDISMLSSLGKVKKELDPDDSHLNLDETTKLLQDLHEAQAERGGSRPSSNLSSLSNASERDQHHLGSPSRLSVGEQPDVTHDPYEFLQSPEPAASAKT
In words: BRD9-GFP protein abundance flow cytometry assay in HEK293A cells. The format is cell-based. The settings on record: HEK293A-BRD9-GFP-CHYSEL-mCherry cells; for BRD9 Deg Amax %: 24 h, % protein remaining at the concentration at which maximum degradation is seen; for DC50: 24 h at 37° C., 10-point 1:3 dilution, concentration at which 50% maximal degradation was observed. An outline of the steps: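 HEK293A cells stably express bicistronic BRD9-GFP-CHYSEL-mCherry and received 24 h treatment at 37° C with a 10-point, 3-fold dilution series from […], in 0.1% DMSO and duplicate. Median GFP/mCherry ratio of 5,000 single cells by flow cytometry, normalized to mCherry-only cells (0%) and DMSO (100%), gave DC50 and Amax (% protein remaining).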

Regarding `COc1cc(-c2cn(C)c(=O)c3cnccc23)cc(OC)c1CN1CCC(OC2CCN(C(=O)COc3ccc(N4CCC(=O)NC4=O)cc3)CC2)CC1` [Compound A35, 1-(4-(2-(4-((1-(2,6-Dimethoxy-4-(2-methyl-1-oxo-1,2-dihydro-2,7-naphthyridin-4-yl)benzyl)piperidin-4-yl)oxy)piperidin-1-yl)-2-oxoethoxy)phenyl)dihydropyrimidine-2,4(1H,3H)-dione], the “BRD9 Deg Amax %” value was 13.19% and it took 31 nM to reach half-maximal degradation (DC50).

As to `COc1cc(-c2cc(C)c(=O)n(C)c2)cc(OC)c1CN1CCC(OC2CCN(C(=O)COc3ccc(N4CCC(=O)NC4=O)cc3)CC2)CC1` [Compound A8, 1-(4-(2-(4-((1-(4-(1,5-Dimethyl-6-oxo-1,6-dihydropyridin-3-yl)-2,6-dimethoxybenzyl)piperidin-4-yl)oxy)piperidin-1-yl)-2-oxoethoxy)phenyl)dihydropyrimidine-2,4(1H,3H)-dione], the “BRD9 Deg Amax %” value was determined as 16.25% and half-maximal degradation (DC50) was put at 70 nM.

For `COc1ccc(C(=O)N2CCC(CN3CCC(Oc4ccc(-c5cn(C)c(=O)c6cnccc56)cc4Cl)CC3)CC2)cc1N1CCC(=O)NC1=O` [Compound A17, 1-(5-(4-((4-(2-Chloro-4-(2-methyl-1-oxo-1,2-dihydro-2,7-naphthyridin-4-yl)phenoxy)piperidin-1-yl)methyl)piperidine-1-carbonyl)-2-methoxyphenyl)dihydropyrimidine-2,4(1H,3H)-dione], the “BRD9 Deg Amax %” value amounted to 32.92% and the DC50 (usually the concentration at which degradation of the target reaches its halfway point) is 11 nM.

Take `COc1cc(-c2cn(C)c(=O)c3cnccc23)c(OC)cc1CN1CCC(OC2CCN(C(=O)c3ccc(Cl)c(N4CCC(=O)NC4=O)c3)CC2)CC1` [Compound A30, 1-(2-Chloro-5-(4-((1-(2,5-dimethoxy-4-(2-methyl-1-oxo-1,2-dihydro-2,7-naphthyridin-4-yl)benzyl)piperidin-4-yl)oxy)piperidine-1-carbonyl)phenyl)dihydropyrimidine-2,4(1H,3H)-dione]: the “BRD9 Deg Amax %” value was determined as 13.99% and it took 16 nM to reach half-maximal degradation (DC50).

Turning to `CCCn1cc(-c2cc(OC)c(CCN3CCC(OC4CCN(C(=O)c5ccc(Cl)c(N6CCC(=O)NC6=O)c5)CC4)CC3)c(OC)c2)c(C)c(C)c1=O` [Compound B2, 1-(2-Chloro-5-(4-(1-(4-(4,5-dimethyl-6-oxo-1-propyl-1,6-dihydropyridin-3-yl)-2,6-dimethoxyphenethyl)piperidin-4-yloxy)piperidine-1-carbonyl)phenyl)dihydropyrimidine-2,4(1H,3H)-dione], the “BRD9 Deg Amax %” value is on record as 13.73% and it took 2 nM to reach half-maximal degradation (DC50).

Consider `CCCn1cc(-c2cc(OC)c(CCN3CCC(OC4CCN(CCn5cccc(CN6CCC(=O)NC6=O)c5=O)CC4)CC3)c(OC)c2)c(C)c(C)c1=O` [Compound E23, 1-((1-(2-(4-((1-(4-(4,5-dimethyl-6-oxo-1-propyl-1,6-dihydropyridin-3-yl)-2,6-dimethoxyphenethyl)piperidin-4-yl)oxy)piperidin-1-yl)ethyl)-2-oxo-1,2-dihydropyridin-3-yl)methyl)dihydropyrimidine-2,4(1H,3H)-dione], for which the “BRD9 Deg Amax %” value is on record as 14.27% and the half-maximal degradation concentration (DC50) worked out at 11 nM.

As for `CCCCn1cc(-c2cc(F)c(CCN3CCC(OC4CCN(C(=O)c5ccc(Cl)c(N6CCC(=O)NC6=O)c5)CC4)CC3)c(OC)c2)c2ccncc2c1=O` [Compound E53, 1-(5-(4-((1-(4-(2-butyl-1-oxo-1,2-dihydro-2,7-naphthyridin-4-yl)-2-fluoro-6-methoxyphenethyl)-piperidin-4-yl)oxy)piperidine-1-carbonyl)-2-chlorophenyl)dihydro-pyrimidine-2,4(1H,3H)-dione], the “BRD9 Deg Amax %” value is on record as 16.11% and half-maximal degradation (DC50) was put at 4 nM.

As for `COc1cc(-c2cn(C)c(=O)c3cnccc23)c(OC)cc1/C=C/C(=O)N1CCC(OC2CCN(C(=O)c3ccc(OC)c(N4CCC(=O)NC4=O)c3)CC2)CC1` [Compound A27, (E)-1-(5-(4-((1-(3-(2,5-dimethoxy-4-(2-methyl-1-oxo-1,2-dihydro-2,7-naphthyridin-4-yl)phenyl)acryloyl)piperidin-4-yl)oxy)piperidine-1-carbonyl)-2-methoxyphenyl)dihydropyrimidine-2,4(1H,3H)-dione], the “BRD9 Deg Amax %” value is 12.02% and the DC50 turned out to be 49 nM.

As for `CCCCn1cc(-c2ccc(O[C@H]3CCN(CC4CCN(CCOc5ccc(C)c(N6CCC(=O)NC6=O)c5)CC4)C[C@@H]3F)c(OC)c2)c2ccncc2c1=O` [Compound E22, 1-(5-(2-(4-(((3S,4S)-4-(4-(2-butyl-1-oxo-1,2-dihydro-2,7-naphthyridin-4-yl)-2-methoxyphenoxy)-3-fluoropiperidin-1-yl)methyl)piperidin-1-yl)ethoxy)-2-methylphenyl)dihydropyrimidine-2,4(1H,3H)-dione], the “BRD9 Deg Amax %” value was 39.25% and the 50% degradation concentration (DC50) is 34 nM.

As to `CCCCn1cc(-c2ccc(O[C@H]3CC[C@@H](OC4CCN(C(=O)c5ccc(OC)c(N6CCC(=O)NC6=O)c5)CC4)CC3)cc2)c2ccncc2c1=O` [Compound E3, 1-(5-(4-(((cis)-4-(4-(2-butyl-1-oxo-1,2-dihydro-2,7-naphthyridin-4 yl)phenoxy)cyclohexyl)oxy)piperidine-1-carbonyl)-2-methoxyphenyl)dihydropyrimidine-2,4(1H,3H)-dione], the “BRD9 Deg Amax %” value is on record as 18.38% and it took 2 nM to reach half-maximal degradation (DC50).

In the case of `COc1ccc(C(=O)N2CCC(CN3CCN(Cc4c(OC)cc(-c5cn(C)c(=O)c6cnccc56)cc4OC)CC3)CC2)cc1N1CCC(=O)NC1=O` [Compound A24, 1-(5-(4-((4-(2,6-Dimethoxy-4-(2-methyl-1-oxo-1,2-dihydro-2,7-naphthyridin-4-yl)benzyl)piperazin-1-yl)methyl)piperidine-1-carbonyl)-2-methoxyphenyl)dihydropyrimidine-2,4(1H,3H)-dione], the “BRD9 Deg Amax %” value is 13.31% and the DC50 was determined as 27 nM.

For `CCCCn1cc(-c2cc(OC)c(CCN3CCC(OC4CCN(C(=O)c5ccc(Cl)c(N6CCC(=O)NC6=O)c5)CC4)CC3)c(OC)c2)c2ccncc2c1=O` [Compound B4, 1-(5-(4-((1-(4-(2-butyl-1-oxo-1,2-dihydro-2,7-naphthyridin-4-yl)-2,6-dimethoxyphenethyl)piperidin-4-yl)oxy)piperidine-1-carbonyl)-2-chlorophenyl)dihydropyrimidine-2,4(1H,3H)-dione], the “BRD9 Deg Amax %” value turned out to be 14.82% and the 50% degradation concentration (DC50) came to 3 nM.

For `CCCCn1cc(-c2ccc(O[C@H]3CC[C@@H](OC4CCN(CCn5cccc(CN6CCC(=O)NC6=O)c5=O)CC4)CC3)cc2)c2ccncc2c1=O` [Compound E35, 1-((1-(2-(4-(((cis)-4-(4-(2-butyl-1-oxo-1,2-dihydro-2,7-naphthyridin-4-yl)phenoxy)cyclohexyl)oxy)piperidin-1-yl)ethyl)-2-oxo-1,2-dihydropyridin-3-yl)methyl)dihydropyrimidine-2,4(1H,3H)-dione], the “BRD9 Deg Amax %” value came out at 15.90% and the half-maximal degradation concentration (DC50) was 6 nM.

`CCCCn1cc(-c2cc(F)c(OC3CCN(CCC4CCN(C(=O)c5ccc(OC)c(N6CCC(=O)NC6=O)c5)CC4)CC3)c(F)c2)c2ccncc2c1=O` [Compound E6, 1-(5-(4-(2-(4-(4-(2-butyl-1-oxo-1,2-dihydro-2,7-naphthyridin-4-yl)-2,6-difluorophenoxy)piperidin-1-yl)ethyl)piperidine-1-carbonyl)-2-methoxyphenyl)dihydropyrimidine-2,4(1H,3H)-dione]: the “BRD9 Deg Amax %” value was determined as 21.29% and it took 9 nM to reach half-maximal degradation (DC50).

Regarding `CCCCn1cc(-c2cc(OC)c(CCN3CCC(OC4CCN(C(=O)c5ccc(OC)c(N6CCC(=O)NC6=O)c5)CC4)CC3)c(OC)c2)c2ccncc2c1=O` [Compound E50, 1-(5-(4-((1-(4-(2-butyl-1-oxo-1,2-dihydro-2,7-naphthyridin-4-yl)-2,6-dimethoxyphenethyl)-piperidin-4-yl)oxy)piperidine-1-carbonyl)-2-meth-oxyphenyl)dihydro-pyrimidine-2,4(1H,3H)-dione], the “BRD9 Deg Amax %” value was 13.47% and the half-maximal degradation concentration (DC50) was found to be 8 nM.

Turning to `COc1ccc(C(=O)N2CCC(CN3CCC(Oc4ccc(-c5cn(C)c(=O)c6cnccc56)cc4)CC3)CC2)cc1N1CCC(=O)NC1=O` [Compound A12, 1-(2-Methoxy-5-(4-((4-(4-(2-methyl-1-oxo-1,2-dihydro-2,7-naphthyridin-4-yl)phenoxy)piperidin-1-yl)methyl)piperidine-1-carbonyl)phenyl)dihydropyrimidine-2,4(1H,3H)-dione], the “BRD9 Deg Amax %” value stood at 13.46% and the DC50 stood at 2 nM.
